Read-outs that look alike come from different tables or passages of the source.
Legend:
[1] = test system: primary human CD34+ hematopoietic stem and progenitor cells; conditions: Mandal et al. 2014; cited from earlier work
[2] = test system: Cas9 with gRNA targeting CCR5 in HEK293 cells; assay: High Throughput Genome-wide Translocation Sequencing (HTGTS) off-target analysis; type: cell-based, human
Excerpt: However the impact of DNA repair pathway choice manipulation on genomic integrity is largely unaddressed. To address the impact of ectopic expression of RAD52 and dn53BP1 genomic integrity and CRISPR/Cas9-associated off-target effects the state of the art “High Throughput Genome-wide Translocation Sequencing” (HTGTS)^20—an unbiased approach to monitor off-target (OT) cutting—was utilized. […] As CRISPR/Cas9 may have unintended cutting activity at totally unrelated sequences that can not be predicted by an algorithm, the off-target activity of each guide by HTGTS was examined (data not shown). Though majority of the OTs identified by HGTS overlapped with those identified previously, it was possible to detect novel OTs (data not shown). To study the impact of RAD52 and dn53BP1 on OTs and genomic integrity one guide with no OTs (CCR5D) and other guide that has 7 OTs identified by HTGTS (CCR5Q) were further examined.
HTGTS and Off-Target Analysis. Off-target analysis was carried out by HTGTS as described earlier^20. Briefly, HEK293 cells were co-transfected with expression plasmids encoding Cas9:RAG1B (20 μg), guide RNA targeting CCR5 (10 μg), RAD52 and dn53BP1 (5 μg each) and GFA (5 μg) using Calcium Phosphate. Cells were lysed 48 hours post-transfection and DNA was isolated by ethanol precipitation. 50 μg of DNA was processed for HTGTS as described^20.
However, the impact that such manipulations may have on genomic integrity has not been addressed. To address the impact of ectopic expression of RAD52 and dn53BP1 on genomic integrity and CRISPR/Cas9 specificity High Throughput Genome-wide Translocation Sequencing (HTGTS) was utilized (Frock et al., 2014)—an unbiased approach to monitor the specificity and off-target (OT) activity of Cas9 and other engineered nucleases as well as other types of DSBs.
HTGTS was conducted to analyse off-target effects for gRNA targeting CCR5 (FIG. 8A).

| Substance | off-target activity in CD34+ HSPC [1] | number of off-target sites (OTs) identified by HTGTS [2] | number of off-target sites (OTs) identified by HTGTS ([2]; listed as CCR5D) |
| --- | --- | --- | --- |
| gCCR5D: guide RNA targeting CCR5, spacer TCACTATGCTGCCGCCCAGT (guide TCACTATGCTGCCGCCCAGTGGG; listed as DNA, chemistry not given here; the letters are possibly those of the target site; listed as Homo sapiens) | did not exhibit OT activity | no OT | no OTs |
| gCCR5Q: guide RNA targeting CCR5, spacer GCTGTGTTTGCGTCTCTCCC (guide GCTGTGTTTGCGTCTCTCCCAGG; listed as DNA, chemistry not given here; the letters are possibly those of the target site; listed as Homo sapiens) | did not exhibit OT activity | 7 |  |
